Experimental data taken from publication PMC11859928, “Design, Synthesis, and Antiproliferative Activity of Novel Indole/1,2,4-Triazole Hybrids as Tubulin Polymerization Inhibitors” (Pharmaceuticals, 2025).
Where two headings read alike, the source gives them in different places.

Columns and labels:
Breast cancer subpanel = test: NCI five-dose assay, subpanel mean; format: cell-based, human
HS 578T = test: NCI five-dose assay; format: cell-based, human; conditions: five dose levels
OVCAR-3 = test: NCI five-dose assay; format: cell-based, human; conditions: OVCAR-3, five dose levels
KM12 = test: NCI five-dose assay; format: cell-based, human; conditions: KM12, five dose levels
HCT-116 = test: NCI five-dose assay; format: cell-based, human; conditions: HCT-116, five dose levels
HOP-62 = test: NCI five-dose assay; format: cell-based, human; conditions: HOP-62, five dose levels
Melanoma subpanel = test: NCI five-dose assay, subpanel mean; format: cell-based, human
BT-549 = test: NCI five-dose assay; format: cell-based, human; conditions: BT-549, five dose levels
SNB-75 = test: NCI five-dose assay; format: cell-based, human; conditions: SNB-75, five dose levels
LOX IMVI = test: NCI five-dose assay; format: cell-based, human; conditions: five dose levels
U251 = test: NCI five-dose assay; format: cell-based, human; conditions: U251, five dose levels
OVCAR-4 = test: NCI five-dose assay; format: cell-based, human; conditions: OVCAR-4, five dose levels
UACC-62 = test: NCI five-dose assay; format: cell-based, human; conditions: UACC-62, five dose levels
tubulin = molecular target: T1, tubulin (Sus scrofa, UniProt P02550+P02554); test: Tubulin polymerization inhibitory assay; format: biochemical
T1 construct: purchased Cytoskeleton Inc., Denver, CO, USA
T1 sequence (P02554 whole entry): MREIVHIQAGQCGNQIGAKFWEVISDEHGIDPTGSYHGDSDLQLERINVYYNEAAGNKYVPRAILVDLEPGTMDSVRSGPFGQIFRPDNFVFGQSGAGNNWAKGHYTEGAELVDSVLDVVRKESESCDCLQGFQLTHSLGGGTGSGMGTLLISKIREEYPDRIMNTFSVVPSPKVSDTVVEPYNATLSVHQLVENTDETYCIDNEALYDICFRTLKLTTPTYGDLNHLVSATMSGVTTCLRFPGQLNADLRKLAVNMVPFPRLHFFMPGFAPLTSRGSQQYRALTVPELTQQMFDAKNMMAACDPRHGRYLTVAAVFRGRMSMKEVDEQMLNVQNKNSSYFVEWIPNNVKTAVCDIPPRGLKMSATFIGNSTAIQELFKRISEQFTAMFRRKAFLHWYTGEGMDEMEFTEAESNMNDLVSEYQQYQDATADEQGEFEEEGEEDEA
T1 sequence (P02550 whole entry): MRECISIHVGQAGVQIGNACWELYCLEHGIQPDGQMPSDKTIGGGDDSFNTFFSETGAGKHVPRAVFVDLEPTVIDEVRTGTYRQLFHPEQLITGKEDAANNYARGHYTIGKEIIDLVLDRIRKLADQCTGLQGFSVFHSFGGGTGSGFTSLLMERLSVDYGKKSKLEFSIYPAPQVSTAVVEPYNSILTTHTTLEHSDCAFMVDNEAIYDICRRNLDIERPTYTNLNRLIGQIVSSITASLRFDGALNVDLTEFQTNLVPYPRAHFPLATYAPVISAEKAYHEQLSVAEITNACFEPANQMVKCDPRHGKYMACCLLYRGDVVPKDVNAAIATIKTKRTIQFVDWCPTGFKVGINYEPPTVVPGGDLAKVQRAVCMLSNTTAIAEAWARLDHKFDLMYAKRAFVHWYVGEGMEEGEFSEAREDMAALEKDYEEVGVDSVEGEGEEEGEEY
Summary of the method: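 Compound effects on tubulin polymerization were measured with the Tubulin Polymerization Assay Kit (Cytoskeleton Inc., Denver, CO, USA), run as the supplier instructs, which detects polymerization through enhancement of a fluorescent reporter. Docetaxel served as the stabilizing control and vincristine as the destabilizing control, each at 3 µM in PBS.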

SK-MEL-5 = test: NCI five-dose assay; format: cell-based, human; conditions: SK-MEL-5, five dose levels
MCF7 = test: NCI five-dose assay; format: cell-based, human; conditions: MCF7, five dose levels
T-47D = test: NCI five-dose assay; format: cell-based, human; conditions: five dose levels
NCI-H23 = test: NCI five-dose assay; format: cell-based, human; conditions: NCI-H23, five dose levels
MDA-MB-435 = test: NCI five-dose assay; format: cell-based, human; conditions: MDA-MB-435, five dose levels
Leukemia subpanel = test: NCI five-dose assay, subpanel mean; format: cell-based, human
TK-10 = test: NCI five-dose assay; format: cell-based, human; conditions: TK-10, five dose levels
COLO205 = test: NCI five-dose assay; format: cell-based, human; conditions: COLO205, five dose levels
DU-145 = test: NCI five-dose assay; format: cell-based, human; conditions: DU-145, five dose levels
UACC-257 = test: NCI five-dose assay; format: cell-based, human; conditions: UACC-257, five dose levels
MOLT-4 = test: NCI five-dose assay; format: cell-based, human; conditions: MOLT-4, five dose levels
[1] = Homo sapiens, read-out: GI50 Conc. per Cell Lines
[2] = Homo sapiens, read-out: LC50 (the source's name)

O/N=C(\CSc1nnc(-c2c[nH]c3ccccc23)n1-c1ccccc1)c1ccc(Cl)cc1 [Compound 7j, (Z)-2-((5-(1H-Indol-3-yl)-4-phenyl-4H-1,2,4-triazol-3-yl)thio)-1-(4-chlorophenyl) Ethanone Oxime]
GI50 Selectivity Ratio (MID a/MID b) (Breast cancer subpanel; Breast cancer subpanel): 1.24 | GI50 (Breast cancer subpanel; Homo sapiens, Breast cancer, average sensitivity of all cell lines of the subpanel, read-out: GI50 Subpanel MID b): 2.93 µM | LC50 (HS 578T; Homo sapiens): > 100 µM | GI50 (HS 578T; [1]): 3.09 µM | TGI Conc. per Cell Lines (HS 578T): 16.6 µM | LC50 (OVCAR-3; Homo sapiens): > 100 µM | GI50 (OVCAR-3; [1]): 4.58 µM | TGI Conc. per Cell Lines (OVCAR-3): 32.4 µM | GI50 (KM12; [1]): 4.72 µM | CC50 (KM12; [2]): > 100 µM | TGI Conc. per Cell Lines (KM12): >100 µM | TGI Conc. per Cell Lines (HCT-116): 13.7 µM | GI50 (HCT-116; [1]): 2.92 µM | CC50 (HCT-116; [2]): > 100 µM | TGI Conc. per Cell Lines (HOP-62): 3.65 µM | GI50 (HOP-62; [1]): 1.74 µM | GI50 (Melanoma subpanel; Homo sapiens, Melanoma, average sensitivity of all cell lines of the subpanel, read-out: GI50 Subpanel MID b): 3.42 µM | GI50 Selectivity Ratio (MID a/MID b) (Melanoma subpanel; Melanoma subpanel): 1.06 | TGI Conc. per Cell Lines (BT-549): 11.1 µM | GI50 (BT-549; [1]): 3.71 µM | CC50 (BT-549; [2]): 6.28 µM | GI50 (SNB-75; [1]): 1.68 µM | CC50 (SNB-75; [2]): > 100 µM | TGI Conc. per Cell Lines (SNB-75): 5.80 µM | GI50 (LOX IMVI; [1]): 1.72 µM | CC50 (LOX IMVI; [2]): 17.4 µM | TGI Conc. per Cell Lines (LOX IMVI): 3.12 µM | GI50 (U251; Homo sapiens, U-251, read-out: GI50 Conc. per Cell Lines): 4.73 µM | CC50 (U251; Homo sapiens, U-251, read-out: LC50 (the source's name)): 46.9 µM | TGI Conc. per Cell Lines (U251): 81.2 µM | LC50 (OVCAR-4; Homo sapiens): > 100 µM | GI50 (OVCAR-4; [1]): 1.96 µM | TGI Conc. per Cell Lines (OVCAR-4): 4.32 µM | GI50 (UACC-62; [1]): 2.62 µM | CC50 (UACC-62; [2]): > 100 µM | TGI Conc. per Cell Lines (UACC-62): 10.1 µM | %inhibition (tubulin; conc 0.01 (unit not given; IC50 from this curve in µg/ml)): 5.23% | %inhibition (tubulin; conc 0.1 (unit not given; IC50 from this curve in µg/ml)): 15.6% | %inhibition (tubulin; conc 1 (unit not given; IC50 from this curve in µg/ml)): 34.8% | %inhibition (tubulin; conc 10 (unit not given; IC50 from this curve in µg/ml)): 58.9% | %inhibition (tubulin; conc 100 (unit not given; IC50 from this curve in µg/ml)): 87.6% | IC50 (tubulin; read-out: Tub. IC50±SD (converted)): 6.26 µM | IC50 (tubulin; read-out: Tubulin Inhibitory Effect, IC50): 6.26 ± 0.15 µM | GI50 (SK-MEL-5; [1]): 3.87 µM | CC50 (SK-MEL-5; [2]): 38.7 µM | TGI Conc. per Cell Lines (SK-MEL-5): 19.5 µM | LC50 (MCF7; Homo sapiens): 22.5 µM | GI50 (MCF7; [1]): 3.63 µM | TGI Conc. per Cell Lines (MCF7): 21.6 µM | LC50 (concentration killing 50% of cells) (T-47D; Homo sapiens, T47D): > 100 µM | GI50 (T-47D; Homo sapiens, T47D, read-out: GI50 Conc. per Cell Lines): 3.6 µM | TGI Conc. per Cell Lines (T-47D): 31.4 µM | GI50 (NCI-H23; [1]): 6.52 µM | CC50 (NCI-H23; [2]): > 100 µM | TGI Conc. per Cell Lines (NCI-H23): >100 µM | GI50 (MDA-MB-435; [1]): 1.74 µM | CC50 (MDA-MB-435; [2]): 60.5 µM | TGI Conc. per Cell Lines (MDA-MB-435): 3.41 µM | GI50 (Leukemia subpanel; Homo sapiens, Leukemia, average sensitivity of all cell lines of the subpanel, read-out: GI50 Subpanel MID b): 2.8 µM | GI50 Selectivity Ratio (MID a/MID b) (Leukemia subpanel; Leukemia subpanel): 1.30 | GI50 (TK-10; [1]): 3.7 µM | CC50 (TK-10; [2]): > 100 µM | TGI Conc. per Cell Lines (TK-10): 17.7 µM | TGI Conc. per Cell Lines (COLO205): 25.9 µM | GI50 (COLO205; Homo sapiens, COLO 205, read-out: GI50 Conc. per Cell Lines): 4.47 µM | CC50 (COLO205; Homo sapiens, COLO 205, read-out: LC50 (the source's name)): > 100 µM | TGI Conc. per Cell Lines (DU-145): 6.32 µM | GI50 (DU-145; [1]): 2.59 µM | CC50 (DU-145; [2]): > 100 µM | GI50 (UACC-257; [1]): 4.67 µM | CC50 (UACC-257; [2]): > 100 µM | TGI Conc. per Cell Lines (UACC-257): 87.8 µM | GI50 (MOLT-4; [1]): 2.16 µM | CC50 (MOLT-4; [2]): > 100 µM | TGI Conc. per Cell Lines (MOLT-4): 5.69 µM
